Each structure is given as a SMILES string. Where only a bound is given, the exact number is not on record here.

Among the data in patent publication US6689789B2, “Compounds useful for inhibition of farnesyl protein transferase” (Schering Corporation, priority 1997, dated 2004) are IC50 values, retold here.

The target in the test is farnesyl protein transferase (Homo sapiens, UniProt P49356). As to the kind of experiment: FPT IC50, inhibition of farnesyl protein transferase, in vitro enzyme assay. The format is biochemical. The note with it: procedure of WO 95/10516. How it is done:
FPT IC50 (inhibition of farnesyl protein transferase, in vitro enzyme assay) and COS Cell IC50 (Cell-Based Assay) were determined following the assay procedures described in WO 95/10516, published Apr. 20, 1995. GGPT IC50 (inhibition of geranylgeranyl protein transferase, in vitro enzyme assay), Cell Mat Assay, and anti-tumor activity (in vivo anti-tumor studies) could be determined by the assay procedures described in WO 95/10516. The disclosure of WO 95/10516 is incorporated herein by reference thereto.
By IC50 is commonly meant the concentration needed to halve the response being measured. With `O=C(Cc1cc[n+]([O-])cc1)N1CCC(C2(O)c3ncc(Br)cc3CCc3cc(Cl)cc(Br)c32)CC1` (centres unmarked) [Example #1 Step C, 4-(3,10-dibromo-8-chloro-6,11-dihydro-11-hydroxy-5H-benzo[5,6]cyclohepta[1,2-b]pyridin-11-yl)-1-(4-pyridinylacetyl)piperidine N1-oxide], the half-inhibitory concentration (IC50) is under 2 nM.
In the case of `CC(C)(C)OC(=O)N1CCC(CC(=O)N2CCC(C3(O)c4ncc(Br)cc4CCc4cc(Cl)cc(Br)c43)CC2)CC1` (centres unmarked) [Example #2 Step A, 4-(3,10-dibromo-8-chloro-6,11-dihydro-11-hydroxy-5H-benzo[5,6]cyclohepta[1,2-b]pyridin-11-yl)-1-(N-BOC-4-piperdinylacetyl)piperidine] it was 42 nM; in that of `O=C(CC1CCNCC1)N1CCC(C2(O)c3ncc(Br)cc3CCc3cc(Cl)cc(Br)c32)CC1` (centres unmarked) [Example #2 Step B, 4-[2-[4-(3,10-dibromo-8-chloro-6,11-dihydro-11-hydroxy-5H-benzo[5,6]-cyclohepta[1,2-b]pyridin-11-yl)-1-piperdinyl]-2-oxoethyl]-1-piperidine], 12.5 nM; in that of `NC(=O)N1CCC(CC(=O)N2CCC(C3(O)c4ncc(Br)cc4CCc4cc(Cl)cc(Br)c43)CC2)CC1` (centres unmarked) [Example #2 Step C, 4-[2-[4-(3,10-dibromo-8-chloro-6,11-dihydro-11-hydroxy-5H-benzo[5,6]cyclohepta[1,2-b]pyridin-11-yl)-1-piperdinyl]-2-oxoethyl]-1-piperidinecarboxamide], 10.8 nM.
In the case of `NC(=O)CN1CCC(CC(=O)N2CCC(C3(O)c4ncc(Br)cc4CCc4cc(Cl)cc(Br)c43)CC2)CC1` (centres unmarked) [compound 3, 4-[2-[4-(3,10-dibromo-8-chloro-6,11-dihydro-11-hydroxy-5H-benzo[5,6]cyclohepta-[1,2-B]pyridin-11-yl)-1-piperidinyl]-2-oxoethyl]-1-piperidineacetamide] it was 8.7 nM.
